The assay has as its system HEK293. The assay is described as follows: Effective dose required to inhibit beta-amyloid formation in a human kidney cell line (HEK 293). The following applies: read-out: ED50 (the source's name). In kind it is functional.
On to `C[C@H](NC(=O)Cc1cc(F)cc(F)c1)C(=O)N[C@@H](CO)c1ccccc1`, for which the EC50 was above 10000 nM.

Take `C[C@H](NC(=O)[C@@H](O)c1cc(F)cc(F)c1)C(=O)N[C@H](CO)CC1CCCCC1`: the EC50 turned out to be 200 nM.

In the case of `CSCC[C@@H](CO)NC(=O)[C@H](C)NC(=O)Cc1cc(F)cc(F)c1`, the EC50 amounted to 490 nM.

Take `C[C@H](NC(=O)[C@@H](O)c1cc(F)cc(F)c1)C(=O)N[C@H](CO)CCCc1ccccc1`: the EC50 worked out at 130 nM.

As to `C[C@H](NC(=O)[C@@H](O)c1cc(F)cc(F)c1)C(=O)N[C@H](CO)CCc1ccccc1`, the EC50 turned out to be 270 nM.

Turning to `CSCC[C@@H](CO)NC(=O)[C@H](C)NC(=O)[C@@H](O)c1cc(F)cc(F)c1`, the EC50 is 960 nM.

Regarding `C[C@H](NC(=O)Cc1cc(F)cc(F)c1)C(=O)N[C@@H](c1ccccc1)[C@H](O)c1ccccc1`, the EC50 is 3500 nM.

Take `CCCC[C@@H](CO)NC(=O)[C@H](C)NC(=O)Cc1cc(F)cc(F)c1`: the EC50 came out at 460 nM.

On to `CCCC[C@H](CO)NC(=O)[C@H](C)NC(=O)[C@@H](O)c1cc(F)cc(F)c1`, for which the EC50 was found to be 24500 nM.

With `C[C@H](NC(=O)Cc1cc(F)cc(F)c1)C(=O)N[C@H](CO)c1ccccc1`, the EC50 is 180 nM.

On to `C[C@H](NC(=O)Cc1cc(F)cc(F)c1)C(=O)NCCO`, for which the EC50 was above 10000 nM.

For the molecule `CCCC[C@@H](CO)NC(=O)[C@H](C)NC(=O)[C@@H](O)c1cc(F)cc(F)c1`, the EC50 was determined as 600 nM.

`CCCC[C@H](NC(=O)[C@H](C)NC(=O)Cc1cc(F)cc(F)c1)C(=O)OC`: the EC50 was 15 nM.

Regarding `CCCC[C@H](NC(=O)[C@@H](C)NC(=O)Cc1cc(F)cc(F)c1)C(=O)OC`, the EC50 stood at 9400 nM.

With `C[C@H](NC(=O)Cc1cc(F)cc(F)c1)C(=O)N[C@H]1c2ccccc2C[C@H]1O`, the EC50 turned out to be 630 nM.

For `C[C@H](NC(=O)Cc1cc(F)cc(F)c1)C(=O)N[C@H](c1ccccc1)[C@@H](O)c1ccccc1`, the EC50 is above 10000 nM.

Take `C[C@H](NC(=O)Cc1cc(F)cc(F)c1)C(=O)N(C)[C@H](C)[C@H](O)c1ccccc1`: the EC50 was above 10000 nM.

Consider `C#CC[C@@H](CO)NC(=O)[C@H](C)NC(=O)Cc1cc(F)cc(F)c1`, for which the EC50 is 10000 nM.

As for `C[C@H](NC(=O)Cc1cc(F)cc(F)c1)C(=O)N[C@H](C)[C@@H](O)c1ccccc1`, the EC50 is above 10000 nM.

In the case of `C[C@H](NC(=O)Cc1cc(F)cc(F)c1)C(=O)N[C@@H](C)[C@H](O)c1ccccc1`, the EC50 was above 10000 nM.

`COC(=O)C[C@@H](O)[C@H](Cc1ccccc1)NC(=O)[C@H](C)NC(=O)Cc1cc(F)cc(F)c1`: the EC50 was above 10000 nM.

Regarding `C[C@H](NC(=O)Cc1cc(F)cc(F)c1)C(=O)N(C)[C@@H](C)[C@@H](O)c1ccccc1`, the EC50 is above 10000 nM.

For the molecule `CCCC[C@H](CO)NC(=O)[C@H](C)NC(=O)Cc1cc(F)cc(F)c1`, the EC50 is above 29000 nM.

For the molecule `C[C@H](NC(=O)Cc1cc(F)cc(F)c1)C(=O)N[C@H](CO)CCCc1ccccc1`, the EC50 amounted to 870 nM.

For the molecule `C[C@H](NC(=O)Cc1cc(F)cc(F)c1)C(=O)N[C@H](CO)CC1CCCCC1`, the EC50 came out at 800 nM.

On to `C#CC[C@@H](CO)NC(=O)[C@H](C)NC(=O)[C@@H](O)c1cc(F)cc(F)c1`, for which the EC50 was 2300 nM.

For `C[C@H](NC(=O)Cc1cc(F)cc(F)c1)C(=O)N[C@H](CO)Cc1ccccc1`, the EC50 came to 2700 nM.

Take `C[C@H](NC(=O)Cc1cc(F)cc(F)c1)C(=O)NC1c2ccccc2C[C@@H]1O` (single isomer, unassigned): the EC50 is above 10000 nM.
